From the supplement of paper PMC10307832

Assays:
Assay in all cases: relative viability (nuclei count vs DMSO), 5 days (fraction); higher = more cells survive
Bortezomib + Navitoclax = compound: CC(C)C[C@H](NC(=O)[C@H](Cc1ccccc1)NC(=O)c1cnccn1)B(O)O [Bortezomib] + CC1(C)CCC(c2ccc(Cl)cc2)=C(CN2CCN(c3ccc(C(=O)NS(=O)(=O)c4ccc(N[C@H](CCN5CCOCC5)CSc5ccccc5)c(S(=O)(=O)C(F)(F)F)c4)cc3)CC2)C1 [Navitoclax] (partner 0.5 µM)
In short: (§1)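 Lung cancer cell lines in 1536-well plates were dosed by pin tool the day after seeding, either with one drug alone or with a fixed anchor-drug dose plus five library-drug doses (not always all listed) in √10 steps. After 5 days, cells were fixed and their nuclei stained in one step (final 0.05% Triton X-100, 1% formaldehyde, 1 ug/ml Hoechst), then counted on 4× images. Relative viability is the nuclei count in treated wells divided by that in vehicle wells. Values are medians of duplicate plates.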

Bortezomib + Tozasertib = compound: CC(C)C[C@H](NC(=O)[C@H](Cc1ccccc1)NC(=O)c1cnccn1)B(O)O [Bortezomib] + Cc1cc(Nc2cc(N3CCN(C)CC3)nc(Sc3ccc(NC(=O)C4CC4)cc3)n2)n[nH]1 [Tozasertib] (partner 0.1 µM)
In short: as §1

Bortezomib + Decitabine = compound: CC(C)C[C@H](NC(=O)[C@H](Cc1ccccc1)NC(=O)c1cnccn1)B(O)O [Bortezomib] + Nc1ncn([C@H]2C[C@H](O)[C@@H](CO)O2)c(=O)n1 [Decitabine] (partner 2 µM)
In short: as §1

[1] = compound: CC1=CC(=NN1)NC2=CC(=NC(=N2)/C=C/C3=CC=CC=C3)N4CCN(CC4)C + C[C@@H](Oc1cc(-c2cnn(C3CCNCC3)c2)cnc1N)c1c(Cl)ccc(F)c1Cl [Crizotinib] (partner 1 µM)
In short: as §1

Cell Line | relative viability (Bortezomib + Navitoclax; first compound 0.0002 µM) | relative viability (Bortezomib + Navitoclax; first compound 0.000632 µM) | relative viability (Bortezomib + Navitoclax; first compound 0.002 µM) | relative viability (Bortezomib + Navitoclax; first compound 0.006325 µM) | relative viability (Bortezomib + Navitoclax; first compound 0.02 µM) | relative viability (Bortezomib + Tozasertib; first compound 0.0002 µM) | relative viability (Bortezomib + Tozasertib; first compound 0.000632 µM) | relative viability (Bortezomib + Tozasertib; first compound 0.002 µM) | relative viability (Bortezomib + Tozasertib; first compound 0.006325 µM) | relative viability (Bortezomib + Tozasertib; first compound 0.02 µM) | relative viability (Bortezomib + Decitabine; first compound 0.0002 µM) | relative viability (Bortezomib + Decitabine; first compound 0.000632 µM) | relative viability (Bortezomib + Decitabine; first compound 0.002 µM) | relative viability (Bortezomib + Decitabine; first compound 0.006325 µM) | relative viability (Bortezomib + Decitabine; first compound 0.02 µM) | relative viability ([1]; first compound 0.08 µM) | relative viability ([1]; first compound 0.253 µM) | relative viability ([1]; first compound 0.8 µM) | relative viability ([1]; first compound 2.53 µM) | relative viability ([1]; first compound 8 µM)
NCI-H3122 | 1.01 | 1.04 | 1.06 | 0.625 | 0.167 | 0.388 | 0.43 | 0.266 | 0.153 | 0.088 | 0.439 | 0.438 | 0.403 | 0.34 | 0.129 | 0.285 | 0.318 | 0.253 | 0.268 | 0.168
PC-3 [JPC-3] | 0.783 | 0.842 | 0.724 | 0.44 | 0.139 | 0.827 | 0.898 | 0.442 | 0.169 | 0.125 | 0.815 | 0.84 | 0.428 | 0.301 | 0.237 | 0.931 | 1 | 0.917 | 0.878 | 0.74
PC-14 | 1.02 | 0.941 | 0.992 | 0.0667 | 0.0697 | 0.415 | 0.612 | 0.562 | 0.113 | 0.0502 | 0.254 | 0.234 | 0.195 | 0.0599 | 0.0702 | 0.831 | 1 | 0.872 | 0.494 | 0.0811
RERF-LC-KJ | 1.01 | 1.19 | 0.593 | 0.247 | 0.244 | 0.523 | 0.436 | 0.559 | 0.208 | 0.189 | 0.663 | 0.707 | 0.531 | 0.226 | 0.219 | 0.832 | 0.82 | 0.747 | 0.617 | 0.234
SK-LU-1 | 0.781 | 0.83 | 0.903 | 0.0872 | 0.0835 | 0.284 | 0.362 | 0.282 | 0.102 | 0.1 | 0.499 | 0.644 | 0.533 | 0.245 | 0.174 | 1.01 | 0.792 | 0.725 | 0.274 | 0.137
SK-MES-1 | 1.24 | 1.28 | 1.22 | 0.198 | 0.146 | 0.935 | 0.933 | 0.882 | 0.315 | 0.127 | 0.444 | 0.411 | 0.379 | 0.194 | 0.156 | 0.96 | 1.01 | 0.903 | 0.422 | 0.133
SW 1573 | 0.849 | 1.12 | 0.928 | 0.0531 | 0.0615 | 0.168 | 0.172 | 0.165 | 0.0802 | 0.0573 | 0.366 | 0.573 | 0.229 | 0.0617 | 0.0363 | 0.886 | 0.829 | 0.604 | 0.194 | 0.1
UMC-11 | 0.288 | 0.281 | 0.315 | 0.12 | 0.101 | 0.19 | 0.208 | 0.197 | 0.229 | 0.204 | 0.628 | 0.713 | 0.483 | 0.326 | 0.203 | 0.519 | 0.528 | 0.41 | 0.0737 | 0.062
